Assays:
[1] = test system: phosphorylated STAT1 in B16-F10 cells; assay: Phospho-STAT1 (Tyr701) HTRF assay in B16-F10 cells with IFN-gamma; format: cell-based; settings: mouse IFN-gamma 100 ng/mL, 1 hour, read-out: pSTAT1 HTRF B16F10 EC50
Method: B16-F10 cells (ATCC, Manassas, VA, #CRL-6475) were cultured in DMEM growth medium (ThermoFisher Scientific, Waltham, MA, #11995-040) supplemented with 10% heat-inactivated FBS (ThermoFisher Scientific, #16140-071) and 1% pen/strep (ThermoFisher Scientific, #15140-122). The cells were seeded into a white opaque 384-well tissue culture treated microplate (PerkinElmer, Waltham, MA, #6007688) at a density of 10,000 cells/well in 20 uL total volume and incubated overnight at 37 C and 5% CO2. 30 nL of compounds dissolved in DMSO were then transferred from a source plate into target wells with the Echo650 acoustic liquid handler (Beckman Coulter, Indianapolis, IN). Negative control wells received 30 nL of DMSO only (0.15% final concentration). Plates were returned to the incubator for 1 hour and then cells were treated with either 5 uL of growth medium or 5 uL of growth medium containing 500 ng/mL of recombinant mouse IFN-gamma protein (R&D Systems, Minneapolis, MN, #485-MI/CF, 100 ng/mL final concentration) using the Assist automated pipetting platform (INTEGRA Biosciences, Hudson, NH). Plates were incubated at 37 C for 1 hour and assayed for phosphorylated STAT1 protein levels with the phospho-STAT1 (Tyr701) HTRF kit (Cisbio, Bedford, MA, #63ADK026PEH) according to the manufacturer's instructions.

[2] = molecular target: T1, PTPN2 (Homo sapiens (Human), UniProt P17706); assay: Phosphatase activity assay using DiFMUP as substrate; format: biochemical; settings: PTPN2 0.15 nM, 10 mM DTT
Method: The PTPN2 biochemical assay was performed as follows, a 5× stock solution of human PTPN2 (SRP5075, MilliporeSigma, Burlington, MA) and a 1.25× stock solution of DiFMUP (D6567, ThermoFisher Scientific, Waltham, MA), were prepared in 1× reaction buffer consisting of 50 mM HEPES, pH 7.4, 1 mM EDTA, 150 mM NaCl, 0.2 mg/mL BSA, 100 U/mL catalase and 10 mM DTT. […] of the DiFMUP substrate solution, for a final concentration of […] DiFMUP substrate, was added to a Corning 3574 384-well, white, non-binding surface microtiter plate containing […] of serially diluted test compounds prepared in DMSO. The reactions were started with the addition of […] of the enzyme solution, for a final PTPN2 concentration of 0.15 nM, and monitored every 105 seconds for 60 minutes at λEX 360/λEM 460 in a BioTek Synergy HTX plate reader (Agilent Technologies, Santa Clara, CA) at room temperature. The initial linear portions of the progress curves were fit according to a linear equation to yield the slopes and converted to % inhibition based on a value of 100% activity for the no inhibitor treated control. IC50 values of each compound were obtained by fitting the % inhibition-compound concentration curves using Dotmatics software (Dotmatics, Bishops Stortford, Hertfordshire, England),
Target sequence in this assay (P17706 other isoform, or with tags, fused parts or gaps isoform P17706-2): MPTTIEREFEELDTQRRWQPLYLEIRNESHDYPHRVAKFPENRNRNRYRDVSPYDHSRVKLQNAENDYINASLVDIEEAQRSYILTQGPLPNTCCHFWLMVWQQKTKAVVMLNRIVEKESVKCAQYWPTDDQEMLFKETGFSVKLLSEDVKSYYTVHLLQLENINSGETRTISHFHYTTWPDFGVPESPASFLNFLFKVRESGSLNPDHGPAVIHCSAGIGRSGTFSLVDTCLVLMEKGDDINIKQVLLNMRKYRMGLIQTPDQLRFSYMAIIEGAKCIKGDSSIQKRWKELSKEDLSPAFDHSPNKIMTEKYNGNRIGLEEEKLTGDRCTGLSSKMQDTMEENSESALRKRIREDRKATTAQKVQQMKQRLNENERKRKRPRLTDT

[3] = molecular target: T1, PTPN2; assay: PhosphoSens assay (PTPN2 BCHEM); format: biochemical; settings: substrate AQT0264 20 μM, PTPN2 150 pM
Method: A PhosphoSens® kinase assay was performed as described by the vendor (AssayQuant Technologies, Marlborough, MA). Briefly, 1000× solutions of compounds were prepared in DMSO via serial dilution of the 10 mM DMSO stocks using 3-fold intervals in a 384-well reagent plate. 50 nL of the compound dilution series was then added to the corresponding wells of a 384-well assay plate. […] Finally, […] of 5× PTPN2 enzyme stock was added to each well of the assay plate for a final enzyme concentration of 150 pM. Reaction progress curves were collected by sampling fluorescence intensity at the excitation wavelength 360 nm (λex360) and emission wavelength 480 nm (λem480) every 71 seconds for one hour using a Synergy H4 plate reader (BioTek Instruments/Agilent Technologies, Winooski, VT) at room temperature.
Target sequence in this assay (P17706 whole entry): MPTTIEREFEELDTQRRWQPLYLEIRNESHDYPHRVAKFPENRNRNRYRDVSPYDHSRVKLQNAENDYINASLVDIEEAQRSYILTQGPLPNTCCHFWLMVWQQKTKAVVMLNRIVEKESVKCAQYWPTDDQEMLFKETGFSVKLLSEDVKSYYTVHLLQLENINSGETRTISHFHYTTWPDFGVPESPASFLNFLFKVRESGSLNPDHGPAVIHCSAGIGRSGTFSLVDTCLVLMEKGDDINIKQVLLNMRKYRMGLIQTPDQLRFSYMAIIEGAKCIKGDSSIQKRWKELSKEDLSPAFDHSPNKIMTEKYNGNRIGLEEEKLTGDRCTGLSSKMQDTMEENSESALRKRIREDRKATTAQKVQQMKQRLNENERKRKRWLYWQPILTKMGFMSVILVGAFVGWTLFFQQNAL

[4] = test system: B16-F10 cells; assay: Cell proliferation assay (CellTiter-Glo) in B16-F10 cells with IFN-gamma; format: cell-based; settings: 120 h, mouse IFN-gamma 10 ng/mL, read-out: PTPN2 Prolif 5d B16F10 EC50

## COc1ccc(NCc2cc(O)c(N3CC(=O)NS3(=O)=O)c(F)c2)nc1OC [EXAMPLE 36, 5-[4-[[(5,6-dimethoxy-2-pyridyl)amino]methyl]-2-fluoro-6-hydroxy-phenyl]-1,1-dioxo-1,2,5-thiadiazolidin-3-one]
[1]
  EC50: 640 nM
[2]
  IC50: 10 nM
[3]
  IC50: 20 nM
[4]
  EC50: 2180 nM

## O=C1CN(c2c(O)cc(CNc3ncccc3C(F)(F)F)cc2F)S(=O)(=O)N1 [EXAMPLE 3, 5-[2-fluoro-6-hydroxy-4-[[[3-(trifluoromethyl)-2-pyridyl]amino]methyl]phenyl]-1,1-dioxo-1,2,5-thiadiazolidin-3-one]
[1]
  EC50: > 15000 nM
[2]
  IC50: 1000 nM
[3]
  IC50: 570 nM
[4]
  EC50: > 15000 nM

## COc1cc(C)nc(NCc2cc(O)c(N3CC(=O)NS3(=O)=O)c(F)c2)c1 [EXAMPLE 41, 5-[2-fluoro-6-hydroxy-4-[[(4-methoxy-6-methyl-2-pyridyl)amino]methyl]phenyl]-1,1-dioxo-1,2,5-thiadiazolidin-3-one]
[1]
  EC50: 59 nM
[2]
  IC50: 2 nM
[4]
  EC50: 50 nM

## O=C1CN(c2c(O)cc(CNc3cc(OCc4ccccc4)ccn3)cc2F)S(=O)(=O)N1 [EXAMPLE 46, 5-[4-[[(4-benzyloxy-2-pyridyl)amino]methyl]-2-fluoro-6-hydroxy-phenyl]-1,1-dioxo-1,2,5-thiadiazolidin-3-one]
[1]
  EC50: 4100 nM
[2]
  IC50: 10 nM
[3]
  IC50: 6 nM
[4]
  EC50: 3510 nM

## COc1cc(NCc2cc(O)c(N3CC(=O)NS3(=O)=O)c(F)c2)ncc1C [EXAMPLE 9, 5-[2-fluoro-6-hydroxy-4-[[(4-methoxy-5-methyl-2-pyridyl)amino]methyl]phenyl]-1,1-dioxo-1,2,5-thiadiazolidin-3-one]
[1]
  EC50: 70 nM
[2]
  IC50: 4 nM
[3]
  IC50: 4 nM
[4]
  EC50: 120 nM

## Cc1ccc(C)c(NCc2cc(O)c(N3CC(=O)NS3(=O)=O)c(F)c2)n1 [EXAMPLE 20, 5-[4-[[(3,6-dimethyl-2-pyridyl)amino]methyl]-2-fluoro-6-hydroxy-phenyl]-1,1-dioxo-1,2,5-thiadiazolidin-3-one]
[1]
  EC50: 3600 nM
[2]
  IC50: 190 nM
[3]
  IC50: 80 nM
[4]
  EC50: 3950 nM

## O=C1CN(c2c(O)cc(CNc3cc(C(F)(F)F)ccn3)cc2F)S(=O)(=O)N1 [EXAMPLE 2, 5-[2-fluoro-6-hydroxy-4-[[[4-(trifluoromethyl)-2-pyridyl]amino]methyl]phenyl]-1,1-dioxo-1,2,5-thiadiazolidin-3-one]
[1]
  EC50: 2430 nM
[2]
  IC50: 350 nM
[3]
  IC50: 80 nM
[4]
  EC50: 2670 nM

## CN(C)c1cccc(NCc2cc(O)c(N3CC(=O)NS3(=O)=O)c(F)c2)n1 [EXAMPLE 44, 5-(4-(((6-(dimethylamino)pyridin-2-yl)amino)methyl)-2-fluoro-6-hydroxyphenyl)-1,2,5-thiadiazolidin-3-one 1,1-dioxide]
[1]
  EC50: 4850 nM
[2]
  IC50: 10 nM
[4]
  EC50: 5750 nM

## Cc1ccc(NCc2cc(O)c(N3CC(=O)NS3(=O)=O)c(F)c2)nc1 [EXAMPLE 14, 5-[2-fluoro-6-hydroxy-4-[[(5-methyl-2-pyridyl)amino]methyl]phenyl]-1,1-dioxo-1,2,5-thiadiazolidin-3-one]
[1]
  EC50: 750 nM
[2]
  IC50: 10 nM
[3]
  IC50: 10 nM
[4]
  EC50: 610 nM

## Cc1cc(Br)nc(NCc2cc(O)c(N3CC(=O)NS3(=O)=O)c(F)c2)c1 [EXAMPLE 48, 5-(4-(((6-bromo-4-methylpyridin-2-yl)amino)methyl)-2-fluoro-6-hydroxyphenyl)-1,2,5-thiadiazolidin-3-one 1,1-dioxide]
[1]
  EC50: 3110 nM
[2]
  IC50: 40 nM
[4]
  EC50: 4620 nM

## Cc1cc(NCc2cc(O)c(N3CC(=O)NS3(=O)=O)c(F)c2)nc(N2CCOCC2)c1 [EXAMPLE 49, 5-(2-fluoro-6-hydroxy-4-(((4-methyl-6-morpholinopyridin-2-yl)amino)methyl)phenyl)-1,2,5-thiadiazolidin-3-one 1,1-dioxide]
[1]
  EC50: 4820 nM
[2]
  IC50: 20 nM
[4]
  EC50: 14700 nM

## N#Cc1cccc(NCc2cc(O)c(N3CC(=O)NS3(=O)=O)c(F)c2)n1 [EXAMPLE 40, 6-[[3-fluoro-5-hydroxy-4-(1,1,4-trioxo-1,2,5-thiadiazolidin-2-yl)phenyl]methylamino]pyridine-2-carbonitrile]
[1]
  EC50: 1750 nM
[2]
  IC50: 5 nM
[4]
  EC50: 2190 nM

## COc1ccc(C)c(NCc2cc(O)c(N3CC(=O)NS3(=O)=O)c(F)c2)n1 [EXAMPLE 29, 5-[2-fluoro-6-hydroxy-4-[[(6-methoxy-3-methyl-2-pyridyl)amino]methyl]phenyl]-1,1-dioxo-1,2,5-thiadiazolidin-3-one]
[1]
  EC50: 7380 nM
[2]
  IC50: 5 nM
[4]
  EC50: 9020 nM

## O=C1CN(c2c(O)cc(CNc3cccc(=O)[nH]3)cc2F)S(=O)(=O)N1 [EXAMPLE 51, 5-(2-fluoro-6-hydroxy-4-(((6-oxo-1,6-dihydropyridin-2-yl)amino)methyl)phenyl)-1,2,5-thiadiazolidin-3-one 1,1-dioxide]
[1]
  EC50: 200 nM
[2]
  IC50: 0.2 nM
[4]
  EC50: 600 nM

## COc1cc(C)cc(NCc2cc(O)c(N3CC(=O)NS3(=O)=O)c(F)c2)n1 [EXAMPLE 39, 5-(2-fluoro-6-hydroxy-4-(((6-methoxy-4-methylpyridin-2-yl)amino)methyl)phenyl)-1,2,5-thiadiazolidin-3-one 1,1-dioxide]
[1]
  EC50: 1940 nM
[2]
  IC50: 140 nM
[4]
  EC50: 4710 nM

## O=C1CN(c2c(O)cc(CNc3cccc(C(F)F)n3)cc2F)S(=O)(=O)N1 [EXAMPLE 42, 5-[4-[[[6-(difluoromethyl)-2-pyridyl]amino]methyl]-2-fluoro-6-hydroxy-phenyl]-1,1-dioxo-1,2,5-thiadiazolidin-3-one]
[1]
  EC50: 4700 nM
[2]
  IC50: 40 nM
[4]
  EC50: 160 nM

## O=C1CN(c2c(O)cc(CNc3cccc(OC(F)F)n3)cc2F)S(=O)(=O)N1 [EXAMPLE 43, 5-[4-[[[6-(difluoromethoxy)-2-pyridyl]amino]methyl]-2-fluoro-6-hydroxy-phenyl]-1,1-dioxo-1,2,5-thiadiazolidin-3-one]
[1]
  EC50: > 15000 nM
[2]
  IC50: 110 nM
[4]
  EC50: 6570 nM

## COc1ccnc(NCc2cc(O)c(N3CC(=O)NS3(=O)=O)c(F)c2)c1OC [EXAMPLE 27, 5-[4-[[(3,4-dimethoxy-2-pyridyl)amino]methyl]-2-fluoro-6-hydroxy-phenyl]-1,1-dioxo-1,2,5-thiadiazolidin-3-one]
[1]
  EC50: > 15000 nM
[2]
  IC50: 810 nM
[4]
  EC50: 1710 nM

## COc1ccc(OC)c(NCc2cc(O)c(N3CC(=O)NS3(=O)=O)c(F)c2)n1 [EXAMPLE 21, 5-[4-[[(3,6-dimethoxy-2-pyridyl)amino]methyl]-2-fluoro-6-hydroxy-phenyl]-1,1-dioxo-1,2,5-thiadiazolidin-3-one]
[1]
  EC50: 9450 nM
[2]
  IC50: 20 nM
[4]
  EC50: 6700 nM

## COc1cc(NCc2cc(O)c(N3CC(=O)NS3(=O)=O)c(F)c2)nc(OC)c1 [EXAMPLE 18, 5-[4-[[(4,6-dimethoxy-2-pyridyl)amino]methyl]-2-fluoro-6-hydroxy-phenyl]-1,1-dioxo-1,2,5-thiadiazolidin-3-one]
[1]
  EC50: 670 nM
[2]
  IC50: 20 nM
[4]
  EC50: 670 nM

## Cc1cc(Oc2ccccc2)cc(NCc2cc(O)c(N3CC(=O)NS3(=O)=O)c(F)c2)n1 [EXAMPLE 52, 5-(2-fluoro-6-hydroxy-4-(((6-methyl-4-phenoxypyridin-2-yl)amino)methyl)phenyl)-1,2,5-thiadiazolidin-3-one 1,1-dioxide]
[1]
  EC50: 6290 nM
[2]
  IC50: 10 nM
[4]
  EC50: 3340 nM
